Data set [1] can be described thus: Chemical stability of the compound in methanol. It counts as physicochemical.
Data set [2] concerns the target T1, Histamine H4 receptor (Homo sapiens, UniProt Q9H3N8). Kind of data set: Displacement of [3H]histamine from human recombinant histamine H4 receptor expressed in CHO cells coexpressing Ga15 by radioligand filtration binding assay. It counts as cell-based. A general note: In a radioligand displacement assay an active substance lowers the binding of a labelled ligand.

Data set [3] is described as follows: Metabolic stability in rat liver microsomes. It counts as ADME, Microsome. The following applies: read-out: Stability. (In general: Liver microsomes are vesicles of endoplasmic reticulum, rich in cytochrome P450 enzymes.)
The target of data set [4] is T1, Histamine H4 receptor. Kind of data set: Antagonist activity at human histamine H4 receptor expressed in HEK293 cells assessed as rev inhibition of forskolin-stimulated cAMP accumulation by CRE-betalactamase reporter gene assay. The format is functional, cell-based. For orientation: Changes in cAMP serve as a functional read-out for many G protein-coupled receptors.

The nature of data set [5]: Metabolic stability in human liver microsomes. It counts as ADME, Microsome. The following applies: read-out: Stability.
The next data set addresses Histamine H3 receptor (Homo sapiens, UniProt Q9Y5N1). Kind of data set: Binding affinity to human histamine H3 receptor.
For data set [6], the system named is Rattus norvegicus. In words: Clearance in rat at 10 mg/kg, sc. It counts as ADME, organism-based. Set-up: dose 10 mg/kg, route subcutaneous. To be noted: in vivo.
Data set [7] is described as follows: Half life in rat at 10 mg/kg, sc. Details: dose 10 mg/kg, route subcutaneous. It counts as ADME, organism-based. To be noted: in vivo.
Data set [8] has as its system Rattus norvegicus. In words: Volume of distribution in rat at 10 mg/kg, sc. The format is ADME, organism-based. Set-up: dose 10 mg/kg, route subcutaneous. The following applies: in vivo.
Data set [9] is described as follows: Half life in rat at 3 mg/kg, sc. To be noted: in vivo. Set-up: dose 3 mg/kg, route subcutaneous. The format is ADME, organism-based.
Data set [10] relates to Rattus norvegicus. In words: Volume of distribution in rat at 3 mg/kg, sc. The following applies: in vivo. The format is ADME, organism-based. Set-up: dose 3 mg/kg, route subcutaneous.
Data set [11] is described as follows: Half life in rat. It counts as ADME, organism-based. To be noted: in vivo.
Data set [12] has as its system Rattus norvegicus. In words: Clearance in rat at 1 mg/kg, iv. The format is ADME, organism-based. Details: dose 1 mg/kg, route intravenous. To be noted: in vivo.
A short description of data set [13]: Volume of distribution in rat at 1 mg/kg, iv. Details: dose 1 mg/kg, route intravenous. The following applies: in vivo. The format is ADME, organism-based.
Data set [14] can be described thus: Half life in rat at 1 mg/kg, iv. The following applies: in vivo. Details: dose 1 mg/kg, route intravenous. The format is ADME, organism-based.
Data set [15] in a line: Oral bioavailability in rat. To be noted: in vivo. It counts as ADME, organism-based.

Where “and” joins values, the source holds several entries; their conditions need not be identical. Equal entries are not always repeated. Calls of active or inactive are those of the source. No cut-off for these calls is given here.

Histamine H3 receptor, sequence (Q9Y5N1 whole entry): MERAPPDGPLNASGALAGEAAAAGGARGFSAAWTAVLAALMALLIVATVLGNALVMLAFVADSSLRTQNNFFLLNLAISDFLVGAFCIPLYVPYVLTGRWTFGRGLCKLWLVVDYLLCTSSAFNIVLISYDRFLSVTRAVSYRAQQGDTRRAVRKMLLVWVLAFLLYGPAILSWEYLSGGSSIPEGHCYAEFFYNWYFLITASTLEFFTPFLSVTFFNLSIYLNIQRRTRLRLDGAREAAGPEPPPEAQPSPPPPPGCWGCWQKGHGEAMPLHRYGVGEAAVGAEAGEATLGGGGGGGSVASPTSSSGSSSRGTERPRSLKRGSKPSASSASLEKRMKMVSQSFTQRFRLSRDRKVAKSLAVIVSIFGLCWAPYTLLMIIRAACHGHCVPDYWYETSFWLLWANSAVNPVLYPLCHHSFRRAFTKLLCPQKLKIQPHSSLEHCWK
T1 sequence (Q9H3N8 whole entry): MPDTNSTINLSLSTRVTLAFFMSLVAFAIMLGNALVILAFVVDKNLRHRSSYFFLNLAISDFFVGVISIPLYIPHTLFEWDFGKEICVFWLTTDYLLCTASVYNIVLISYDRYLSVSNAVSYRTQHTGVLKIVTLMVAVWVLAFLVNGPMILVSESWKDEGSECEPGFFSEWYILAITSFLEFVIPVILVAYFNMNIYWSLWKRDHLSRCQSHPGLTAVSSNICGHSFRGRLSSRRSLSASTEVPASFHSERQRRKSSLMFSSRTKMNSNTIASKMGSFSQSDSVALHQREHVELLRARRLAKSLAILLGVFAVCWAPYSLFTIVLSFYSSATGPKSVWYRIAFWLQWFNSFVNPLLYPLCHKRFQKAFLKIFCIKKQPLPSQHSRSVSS

A word on the Ki: it is the equilibrium dissociation constant of an inhibitor or competing ligand from its target. In the case of `CN1C[C@@H]2CN(C(=N)c3nc4c(F)c(F)ccc4[nH]3)C[C@@H]2C1`, the Stability entry in [1] is reported as “Unstable”. Further, the inhibitory constant (Ki) at Histamine H4 receptor [2] came out at 49 nM.

On to `Cc1c(F)ccc2nc(C(=O)N3C[C@H]4CN(C)C[C@H]4C3)[nH]c12`, for which the figures for the microsomal CLint in data set [3] and in [5] were 214 µL/min/mg and below 7 µL/min/mg, respectively. Further, the results for the inhibition constant Ki on Histamine H4 receptor [4] and on Histamine H4 receptor [2] were 97 nM and 52 nM, respectively.

As for `CN1C[C@@H]2CN(C(=O)c3nc4cc(Cl)ccc4[nH]3)C[C@@H]2C1`, the microsomal CLint is 36 µL/min/mg in data set [3] and below 7 µL/min/mg in data set [5]. Also, the values for the Ki on Histamine H4 receptor [4] and on Histamine H4 receptor [2] were 218 nM and 129 nM, respectively.

Take `CN1C[C@@H]2CN(C(=N)c3nc4ccccc4[nH]3)C[C@@H]2C1`: the results for the Ki on Histamine H3 receptor, at Histamine H4 receptor [4] and on Histamine H4 receptor [2] were 3810 nM, 12.4 nM and 6.5 nM, respectively. For the same compound, the Stability result in data set [1] is given as “Unstable”.

Regarding `CN1C[C@@H]2CN3C(c4nc5cc(F)c(F)cc5[nH]4)=NC[C@H]3[C@@H]2C1`, the inhibition entry at Histamine H4 receptor [4] and on Histamine H4 receptor [2] was “inactive” in each case. In addition, the Stability result in [1] was “Stable”.

One may read the half-life as the time in which the quantity being followed falls by half. A high value points to slow decline. The compound `CN1CCN(C(=O)c2nc3cc(Cl)ccc3[nH]2)CC1` returned an inhibitory constant (Ki) on Histamine H3 receptor of 20000 nM. Further, in the data set on Rattus norvegicus [6], the clearance is 700 mL/min/kg. Besides, in data set [5], the microsomal CLint amounted to 19 µL/min/mg. In [7], this compound had a half-life of 42 min. In the data set with Rattus norvegicus [8], the Vd was 23 L/kg.

`CN1C[C@@H]2CN(C(=O)c3nc4ccccc4[nH]3)C[C@@H]2C1`: the Ki on Histamine H4 receptor [4] stood at 189 nM; on Histamine H4 receptor [2], 102 nM.

For the compound `CN1C[C@@H]2CN(C(=O)c3cc4ccc(Cl)nc4[nH]3)C[C@@H]2C1`, the inhibitory constant (Ki) at Histamine H4 receptor [2] stood at 2090 nM.

Consider `CCN1C[C@@H]2CN(C(=O)c3nc4cc(Cl)ccc4[nH]3)C[C@@H]2C1`, for which the Ki on Histamine H4 receptor [4] came to 3300 nM; on Histamine H4 receptor [2] it was 1960 nM.

With `Cc1c(F)ccc2nc(C(=N)N3C[C@H]4CN(C)C[C@H]4C3)[nH]c12`, the inhibition constant Ki at Histamine H4 receptor [4] stood at 9.3 nM; at Histamine H4 receptor [2], 4.6 nM. The Stability result in data set [1] is given as “Unstable”.

Turning to `CN1CCN(C(=O)c2cc3cc(Cl)ccc3[nH]2)CC1` [JNJ-7777120], at Histamine H3 receptor, the Ki was 15300 nM and > 20000 nM. The half-life in data set [9] is 12 min; in [11], 42 min. In addition, the Vd in the data set with Rattus norvegicus [10] amounted to 2.3 L/kg.

On Histamine H3 receptor, `CN1C[C@@H]2CN(C(=O)c3cc4cc(Cl)ccc4[nH]3)C[C@@H]2C1` came in with a Ki of 8750 nM. Moreover, the microsomal CLint in [5] is below 7 µL/min/mg.

Regarding `CN1C[C@@H]2CN(C(=O)c3cc4cccnc4[nH]3)C[C@@H]2C1`, the inhibition constant (Ki) on Histamine H4 receptor [2] worked out at 973 nM.

Turning to `CN1C[C@@H]2CN(C(=O)c3cc4cc(Cl)cnc4[nH]3)C[C@@H]2C1`, at Histamine H4 receptor [2], the inhibitory constant (Ki) was determined as 83 nM.

As to `CN1CCN(C(=O)c2cc3cccnc3[nH]2)CC1`, the inhibition constant Ki on Histamine H3 receptor is 36600 nM; on Histamine H4 receptor [4], above 29900 nM; at Histamine H4 receptor [2] it was 3100 nM.

`CN1C[C@@H]2CN(C(=N)c3nc4cc(Cl)ccc4[nH]3)C[C@@H]2C1`: the Ki at Histamine H4 receptor [4] is 56 nM. In data set [1], the Stability entry was “Unstable”.

`CC(C)N1C[C@H]2CN(C(=O)c3nc4cc(Cl)ccc4[nH]3)C[C@H]2C1`: the Ki at Histamine H4 receptor [4] was determined as 4490 nM; at Histamine H4 receptor [2], 2670 nM.

Broadly, the bioavailability is dose-corrected exposure relative to a reference, in per cent. Higher therefore signals good availability. `CN1C[C@@H]2CN(C(=N)c3nc4cc(F)c(F)cc4[nH]3)C[C@@H]2C1`: the clearance in the data set on Rattus norvegicus [12] turned out to be 31 mL/min/kg. The compound further showed a Vd in data set [13] of 48 L/kg. In [14], the half-life was 660 min. For the same compound, the Ki at Histamine H3 receptor was 3090 nM; at Histamine H4 receptor [4] it was 17.2 nM; at Histamine H4 receptor [2] it was 9.5 nM. The Stability result in [1] is recorded as “Unstable”. The microsomal CLint in data set [5] was below 7 µL/min/mg. In data set [15], this compound showed a bioavailability of 20%.

As for `CN1C[C@@H]2CN(C(=N)c3nc4c(F)c(F)c(F)cc4[nH]3)C[C@@H]2C1`, the Ki on Histamine H3 receptor was above 20000 nM; at Histamine H4 receptor [4], 20 nM; at Histamine H4 receptor [2] it was 70 nM. Besides, the Stability result in data set [1] is “Unstable”.

On to `CN1CCN(C(=O)c2cn3cc(Cl)ccc3n2)CC1`, for which the Ki is 28600 nM at Histamine H3 receptor, above 11400 nM on Histamine H4 receptor [4] and 3170 nM at Histamine H4 receptor [2].

In the case of `O=C(c1nc2cc(Cl)ccc2[nH]1)N1C[C@H]2CNC[C@H]2C1`, the Ki came out at 8180 nM on Histamine H4 receptor [4] and 5080 nM at Histamine H4 receptor [2].

For the compound `CN1C[C@@H]2CN(C(=O)c3nc4cc(F)ccc4[nH]3)C[C@@H]2C1`, the clearance in the data set with Rattus norvegicus [12] is 161 mL/min/kg. The compound further showed a Vd in data set [13] of 6.1 L/kg. The same compound gave a half-life in data set [14] of 42 min. The Ki at Histamine H3 receptor is 15500 nM; at Histamine H4 receptor [4], 145 nM. In addition, in [5], the microsomal CLint is below 7 µL/min/mg.

Consider `CN1C[C@@H]2CN(C(=O)c3nc4ccc(F)c(F)c4[nH]3)C[C@@H]2C1`, for which the inhibitory constant (Ki) turned out to be 134 nM at Histamine H4 receptor [4] and 74 nM at Histamine H4 receptor [2].

As for `CN1C[C@@H]2CN(C(=O)c3nc4cc(F)c(F)cc4[nH]3)C[C@@H]2C1`, in the data set with Rattus norvegicus [12], the clearance amounted to 58 mL/min/kg. This compound also gave a half-life in [14] of 48 min. Besides, the microsomal CLint in data set [3] was 40 µL/min/mg; in [5] it was below 7 µL/min/mg. Besides, the inhibition constant Ki stood at 17900 nM on Histamine H3 receptor and 236 nM at Histamine H4 receptor [4].

`Clc1ccc2[nH]c(C3=NCCN3)nc2c1`: the inhibition result on Histamine H4 receptor [4] and at Histamine H4 receptor [2] was “inactive” in each case. Moreover, the Stability entry in [1] is given as “Stable”.

With `CN1CCN(C(=O)c2cn3ccncc3n2)CC1`, the inhibition constant Ki at Histamine H4 receptor [4] was above 20000 nM; on Histamine H4 receptor [2], 20100 nM.

As for `CN1C[C@@H]2CN(C(=N)c3nc4cc(F)ccc4[nH]3)C[C@@H]2C1`, the inhibition constant Ki at Histamine H3 receptor is 1190 nM; on Histamine H4 receptor [4], 9.1 nM; on Histamine H4 receptor [2], 4.6 nM. In [1], the Stability result is recorded as “Unstable”.

For the origin of these results see ChEMBL document CHEMBL1938302, “Synthesis of novel histamine H4 receptor antagonists” (Bioorg Med Chem Lett, 2012).
